The record followed here is US7741491B2, “Diphenylamine-substituted salicylthiazole derivatives and related compounds as phosphotyrosine phosphatase 1B (PTB1B) inhibitors for using as blood-sugar decreasing active ingredients for treating diabetes” (Sanofi-Aventis Deutschland GmbH, priority 2004, dated 2010).

In the assay the target is T1, human PTP1B (Homo sapiens, UniProt P18031).
T1 construct: but without the carboxy-terminal hydrophobic region (corresponding to 1-299 aa); made in house; host or cells: Sf9 insect cells (Spodoptera frugiperda), Bac-to-Bac baculovirus system
T1 sequence (P18031 1-299): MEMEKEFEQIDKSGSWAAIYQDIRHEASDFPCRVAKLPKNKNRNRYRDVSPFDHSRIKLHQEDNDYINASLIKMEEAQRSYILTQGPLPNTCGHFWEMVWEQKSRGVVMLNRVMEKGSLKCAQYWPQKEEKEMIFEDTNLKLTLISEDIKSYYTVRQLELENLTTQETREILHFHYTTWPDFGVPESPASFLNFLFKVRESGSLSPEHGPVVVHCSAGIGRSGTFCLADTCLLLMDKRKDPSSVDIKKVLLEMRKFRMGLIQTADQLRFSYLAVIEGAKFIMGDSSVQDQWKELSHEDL
As to the kind of experiment: PTP Assay PTP1B DiFMUP (enzymatic test for inhibition of a phosphatase). It is filed as biochemical. As to conditions: recombinant hPTP1B (aa 1-299, expressed in Sf9 cells); substrate DiFMUP per table head; read-out: IC-50 (μM) PTP Assay PTP1B DiFMUP.

As for `O=C(O)c1cc(-c2csc(Nc3ccc(-c4ccccc4)cc3)n2)ccc1O` [Example 17], the IC50 is 0.7 µM.
